The values that follow come from publication doi:10.1101/2020.11.19.390633v1 (biorxiv, 2020).

In this experiment the target is murine wtIDH1 (KPC cells) (Mus musculus, UniProt O88844). Kind of experiment: cell-based IDH activity assay, NADPH synthesis, after IDH2 siRNA. As to conditions: KPC murine cells, […] MgSO4, […] h; allosteric.
murine wtIDH1 (KPC cells), sequence (O88844 2-414): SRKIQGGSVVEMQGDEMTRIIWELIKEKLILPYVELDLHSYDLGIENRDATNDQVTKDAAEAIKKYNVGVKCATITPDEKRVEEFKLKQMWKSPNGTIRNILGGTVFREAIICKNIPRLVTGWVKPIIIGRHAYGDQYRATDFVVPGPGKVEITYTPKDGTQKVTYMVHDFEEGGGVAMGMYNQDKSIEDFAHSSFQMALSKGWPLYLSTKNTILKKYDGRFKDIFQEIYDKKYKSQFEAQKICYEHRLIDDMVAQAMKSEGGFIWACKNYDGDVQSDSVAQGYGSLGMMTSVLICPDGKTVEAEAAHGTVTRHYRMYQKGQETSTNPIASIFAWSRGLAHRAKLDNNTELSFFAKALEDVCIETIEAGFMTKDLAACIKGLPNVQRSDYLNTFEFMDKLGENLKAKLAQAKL

Broadly, the EC50 is the concentration at which the effect is half-maximal. Read a low EC50 as a more potent agent. `N#Cc1ccnc(N2C(=O)CC[C@H]2C(=O)N(c2cncc(F)c2)[C@H](C(=O)NC2CC(F)(F)C2)c2ccccc2Cl)c1` [AG-120] showed a 50% effective concentration (EC50) of 110 ± 2 nM.
